Measured values taken from ChEMBL document CHEMBL3885861, “Open TG-GATES”.

Organism: Rattus norvegicus
Test: Open TG-GATES - Regimen: Single
Type: toxicity, organism-based, Sprague-Dawley
Parameters: regimen Single, gender Male, age 6 weeks
Settings: in vivo, po, route gavage; for Bas / Eos / Fbg / Lym / Mono / RBC / Ret / WBC: tissue Blood; for KIDNEY_L / KIDNEY_R / KIDNEY_TOTAL: tissue Kidney; for ALP / CRE / DBIL / IP / K / LDH / Na / PL / RALB / TBIL / TG / TP / gamma-GTP / GLC: tissue Plasma
[1] = 0 mg/kg, 3 h, dose level Control
[2] = 0 mg/kg, 6 h, dose level Control
[3] = 0 mg/kg, 9 h, dose level Control
[4] = 0 mg/kg, 24 h, dose level Control

Molecule `C=C[C@H]1C[N@@]2CC[C@H]1C[C@@H]2[C@@H](O)c1ccnc2ccc(OC)cc12` [QUINIDINE] has a TERMINAL_BW [1] of 212.2 g, a Bas [1] of 0% and an Eos [1] of 0.8%. The Fbg [1] was 313.6 mg/dL, the Lym [1] was 78.2% and the Mono [1] was 1.8%. For the same molecule, the RBC [1] was 615 x10_4/ul, the Ret [1] was 7.3% and the WBC [1] was 86.7 x10_2/uL. For the same molecule, the KIDNEY_L [1] was 0.9 g, the KIDNEY_R [1] was 1 g and the KIDNEY_TOTAL [1] was 1.9 g. It also gave an ALP [1] of 1497.8 IU/L, a CRE [1] of 0.2 mg/dL and a DBIL [1] of 0 mg/dL. For the same molecule, the IP [1] was 8.8 mg/dL, the K [1] was 3.9 meq/L and the LDH [1] was 153 IU/L. The Na [1] was 143.8 meq/L, the PL [1] was 136 mg/dL and the RALB [1] was 3 g/dL. For the same molecule, the TBIL [1] was 0.018 mg/dL, the TG [1] was 60.6 mg/dL and the TP [1] was 5.4 g/dL. It also gave a gamma-GTP [1] of 1.8 IU/L, a TERMINAL_BW [2] of 213.3 g and a Bas [2] of 0%. For the same molecule, the Eos [2] was 0.6%, the Fbg [2] was 318.2 mg/dL and the Lym [2] was 81.4%. For the same molecule, the Mono [2] was 2.2%, the RBC [2] was 641 x10_4/ul and the Ret [2] was 7%. For the same molecule, the WBC [2] was 100 x10_2/uL, the KIDNEY_L [2] was 1 g and the KIDNEY_R [2] was 1 g. The KIDNEY_TOTAL [2] was 1.9 g, the ALP [2] was 1503.8 IU/L and the CRE [2] was 0.2 mg/dL. The DBIL [2] was 0 mg/dL, the IP [2] was 9.3 mg/dL and the K [2] was 4.2 meq/L. It also gave an LDH [2] of 187 IU/L, a Na [2] of 143 meq/L and a PL [2] of 134.8 mg/dL. For the same molecule, the RALB [2] was 3.1 g/dL, the TBIL [2] was 0.018 mg/dL and the TG [2] was 73.6 mg/dL. It also gave a TP [2] of 5.4 g/dL, a gamma-GTP [2] of 1.2 IU/L and a TERMINAL_BW [3] of 212.8 g. It also gave a Bas [3] of 0%, an Eos [3] of 0.4% and a Fbg [3] of 288.2 mg/dL. For the same molecule, the Lym [3] was 79.4%, the Mono [3] was 2% and the RBC [3] was 614.8 x10_4/ul. For the same molecule, the Ret [3] was 6.9%, the WBC [3] was 84.8 x10_2/uL and the KIDNEY_L [3] was 1 g. It also gave a KIDNEY_R [3] of 1 g, a KIDNEY_TOTAL [3] of 1.9 g and an ALP [3] of 1297.8 IU/L. The CRE [3] was 0.2 mg/dL, the DBIL [3] was 0 mg/dL and the GLC [3] was 174.2 mg/dL. The IP [3] was 9.6 mg/dL, the K [3] was 4.4 meq/L and the LDH [3] was 136.6 IU/L. For the same molecule, the Na [3] was 143.8 meq/L, the PL [3] was 131.6 mg/dL and the RALB [3] was 3 g/dL. The TBIL [3] was 0.022 mg/dL, the TG [3] was 66 mg/dL and the TP [3] was 5.5 g/dL. The gamma-GTP [3] was 1.6 IU/L, the TERMINAL_BW [4] was 227.4 g and the Bas [4] was 0%. For the same molecule, the Eos [4] was 0.8%, the Fbg [4] was 298.2 mg/dL and the Lym [4] was 78.6%. For the same molecule, the Mono [4] was 1.8%, the RBC [4] was 618.4 x10_4/ul and the Ret [4] was 6.9%. It also gave a WBC [4] of 90.9 x10_2/uL, a KIDNEY_L [4] of 1 g and a KIDNEY_R [4] of 1 g. For the same molecule, the KIDNEY_TOTAL [4] was 2 g, the ALP [4] was 1610.6 IU/L and the CRE [4] was 0.1 mg/dL. For the same molecule, the DBIL [4] was 0 mg/dL, the IP [4] was 7.9 mg/dL and the K [4] was 4.3 meq/L. The LDH [4] was 202.2 IU/L, the Na [4] was 141.6 meq/L and the PL [4] was 149.8 mg/dL. The RALB [4] was 3 g/dL, the TBIL [4] was 0.008 mg/dL and the TP [4] was 5.7 g/dL. The gamma-GTP [4] was 1.6 IU/L, the TERMINAL_BW (20 mg/kg, 3 h, dose level Low) was 218.9 g and the Bas (20 mg/kg, 3 h, dose level Low) was 0%. For the same molecule, the Eos (20 mg/kg, 3 h, dose level Low) was 0.2%, the Fbg (20 mg/kg, 3 h, dose level Low) was 293.2 mg/dL and the Lym (20 mg/kg, 3 h, dose level Low) was 81%. For the same molecule, the Mono (20 mg/kg, 3 h, dose level Low) was 2%, the RBC (20 mg/kg, 3 h, dose level Low) was 600.6 x10_4/ul and the Ret (20 mg/kg, 3 h, dose level Low) was 7.5%. It also gave a WBC (20 mg/kg, 3 h, dose level Low) of 73.2 x10_2/uL, a KIDNEY_L (20 mg/kg, 3 h, dose level Low) of 1 g and a KIDNEY_R (20 mg/kg, 3 h, dose level Low) of 1 g. It also gave a KIDNEY_TOTAL (20 mg/kg, 3 h, dose level Low) of 2 g, an ALP (20 mg/kg, 3 h, dose level Low) of 1446.4 IU/L and a CRE (20 mg/kg, 3 h, dose level Low) of 0.2 mg/dL. The DBIL (20 mg/kg, 3 h, dose level Low) was 0 mg/dL, the GLC (20 mg/kg, 3 h, dose level Low) was 178.4 mg/dL and the IP (20 mg/kg, 3 h, dose level Low) was 8.7 mg/dL. It also gave a K (20 mg/kg, 3 h, dose level Low) of 3.7 meq/L, a Na (20 mg/kg, 3 h, dose level Low) of 142 meq/L and a PL (20 mg/kg, 3 h, dose level Low) of 145 mg/dL. For the same molecule, the RALB (20 mg/kg, 3 h, dose level Low) was 3 g/dL, the TBIL (20 mg/kg, 3 h, dose level Low) was 0.022 mg/dL and the TG (20 mg/kg, 3 h, dose level Low) was 68.2 mg/dL. For the same molecule, the TP (20 mg/kg, 3 h, dose level Low) was 5.4 g/dL, the gamma-GTP (20 mg/kg, 3 h, dose level Low) was 1.8 IU/L and the TERMINAL_BW (20 mg/kg, 6 h, dose level Low) was 214.6 g. For the same molecule, the Bas (20 mg/kg, 6 h, dose level Low) was 0%, the Eos (20 mg/kg, 6 h, dose level Low) was 0.8% and the Fbg (20 mg/kg, 6 h, dose level Low) was 294.2 mg/dL. For the same molecule, the Lym (20 mg/kg, 6 h, dose level Low) was 78%, the Mono (20 mg/kg, 6 h, dose level Low) was 2.6% and the RBC (20 mg/kg, 6 h, dose level Low) was 617.4 x10_4/ul. The Ret (20 mg/kg, 6 h, dose level Low) was 7.3%, the WBC (20 mg/kg, 6 h, dose level Low) was 80 x10_2/uL and the KIDNEY_L (20 mg/kg, 6 h, dose level Low) was 0.9 g. For the same molecule, the KIDNEY_R (20 mg/kg, 6 h, dose level Low) was 1 g, the KIDNEY_TOTAL (20 mg/kg, 6 h, dose level Low) was 1.9 g and the ALP (20 mg/kg, 6 h, dose level Low) was 1616.2 IU/L. It also gave a CRE (20 mg/kg, 6 h, dose level Low) of 0.2 mg/dL, a DBIL (20 mg/kg, 6 h, dose level Low) of 0.004 mg/dL and an IP (20 mg/kg, 6 h, dose level Low) of 9.4 mg/dL. It also gave a K (20 mg/kg, 6 h, dose level Low) of 4 meq/L, a Na (20 mg/kg, 6 h, dose level Low) of 142.8 meq/L and a PL (20 mg/kg, 6 h, dose level Low) of 140.6 mg/dL. It also gave an RALB (20 mg/kg, 6 h, dose level Low) of 3 g/dL, a TBIL (20 mg/kg, 6 h, dose level Low) of 0.034 mg/dL and a TG (20 mg/kg, 6 h, dose level Low) of 55.6 mg/dL. It also gave a TP (20 mg/kg, 6 h, dose level Low) of 5.4 g/dL, a gamma-GTP (20 mg/kg, 6 h, dose level Low) of 1.2 IU/L and a TERMINAL_BW (20 mg/kg, 9 h, dose level Low) of 213.3 g. For the same molecule, the Bas (20 mg/kg, 9 h, dose level Low) was 0%, the Eos (20 mg/kg, 9 h, dose level Low) was 0.8% and the Fbg (20 mg/kg, 9 h, dose level Low) was 302.6 mg/dL. For the same molecule, the Lym (20 mg/kg, 9 h, dose level Low) was 77.2%, the Mono (20 mg/kg, 9 h, dose level Low) was 2.2% and the RBC (20 mg/kg, 9 h, dose level Low) was 642 x10_4/ul. The Ret (20 mg/kg, 9 h, dose level Low) was 6.9%, the WBC (20 mg/kg, 9 h, dose level Low) was 88 x10_2/uL and the KIDNEY_L (20 mg/kg, 9 h, dose level Low) was 1 g. For the same molecule, the KIDNEY_R (20 mg/kg, 9 h, dose level Low) was 1 g, the KIDNEY_TOTAL (20 mg/kg, 9 h, dose level Low) was 2 g and the ALP (20 mg/kg, 9 h, dose level Low) was 1487 IU/L. It also gave a CRE (20 mg/kg, 9 h, dose level Low) of 0.2 mg/dL, a DBIL (20 mg/kg, 9 h, dose level Low) of 0 mg/dL and an IP (20 mg/kg, 9 h, dose level Low) of 9.3 mg/dL. The K (20 mg/kg, 9 h, dose level Low) was 4.4 meq/L, the LDH (20 mg/kg, 9 h, dose level Low) was 133.8 IU/L and the Na (20 mg/kg, 9 h, dose level Low) was 143.8 meq/L. It also gave a PL (20 mg/kg, 9 h, dose level Low) of 136.8 mg/dL, an RALB (20 mg/kg, 9 h, dose level Low) of 3 g/dL and a TBIL (20 mg/kg, 9 h, dose level Low) of 0.02 mg/dL. For the same molecule, the TG (20 mg/kg, 9 h, dose level Low) was 83.4 mg/dL, the TP (20 mg/kg, 9 h, dose level Low) was 5.5 g/dL and the gamma-GTP (20 mg/kg, 9 h, dose level Low) was 1.6 IU/L. The TERMINAL_BW (20 mg/kg, 24 h, dose level Low) was 228.7 g, the Bas (20 mg/kg, 24 h, dose level Low) was 0% and the Eos (20 mg/kg, 24 h, dose level Low) was 1%. It also gave a Fbg (20 mg/kg, 24 h, dose level Low) of 321.4 mg/dL, a Lym (20 mg/kg, 24 h, dose level Low) of 82.4% and a Mono (20 mg/kg, 24 h, dose level Low) of 2.4%. It also gave an RBC (20 mg/kg, 24 h, dose level Low) of 632.8 x10_4/ul, a Ret (20 mg/kg, 24 h, dose level Low) of 6.7% and a WBC (20 mg/kg, 24 h, dose level Low) of 97.6 x10_2/uL. For the same molecule, the KIDNEY_L (20 mg/kg, 24 h, dose level Low) was 1 g, the KIDNEY_R (20 mg/kg, 24 h, dose level Low) was 1 g and the KIDNEY_TOTAL (20 mg/kg, 24 h, dose level Low) was 1.9 g. It also gave an ALP (20 mg/kg, 24 h, dose level Low) of 1563 IU/L, a CRE (20 mg/kg, 24 h, dose level Low) of 0.1 mg/dL and a DBIL (20 mg/kg, 24 h, dose level Low) of 0.002 mg/dL. The IP (20 mg/kg, 24 h, dose level Low) was 7.7 mg/dL, the K (20 mg/kg, 24 h, dose level Low) was 4 meq/L and the Na (20 mg/kg, 24 h, dose level Low) was 140.4 meq/L. For the same molecule, the RALB (20 mg/kg, 24 h, dose level Low) was 3.1 g/dL, the TBIL (20 mg/kg, 24 h, dose level Low) was 0 mg/dL and the TG (20 mg/kg, 24 h, dose level Low) was 147.8 mg/dL. It also gave a TP (20 mg/kg, 24 h, dose level Low) of 5.8 g/dL, a gamma-GTP (20 mg/kg, 24 h, dose level Low) of 1.8 IU/L and a TERMINAL_BW (60 mg/kg, 3 h, dose level Middle) of 222.4 g.
